Measurements as given in patent US7476508B2, “Method of screening agent for improving memory and learning ability” (Astellas Pharma Inc., priority 2003, dated 2009).

Tests used:
[1] = test system: primary cultured neurons derived from the rat hippocampus; test: Spontaneous excitatory postsynaptic currents (sEPSCs) by whole-cell patch-clamp in primary cultured neurons; type: cell-based; settings: voltage-clamped at −60 mV
Description: (§1) A pregnant rat was anesthetized with diethyl ether, and the chest (heart) was dissected to sacrifice the rat by exsanguination. An abdomen was opened, and the uterus was dissected. After a fetus was sterilized with rubbing alcohol in a clean bench, the whole brain was dissected and placed in a petri dish containing a culture medium for neurons (SUMILON; Sumitomo Bakelite). The cerebral cortex and the hippocampus were dissected with fine forceps under a stereomicroscope, and transferred to 50-mL tubes independently. Each tube was allowed to stand, to precipitate each tissue, and each supernatant was removed by suction. A solution for cell dissocition [phosphate buffered saline (PBS) supplemented with 1% papain, 150 U/mL DNase I, 0.02% L-cysteine, 0.02% bovine serum albumin (BSA), and 0.5% glucose] was added to each tube, incubated at 37° C. for 15 minutes, and centrifuged (1000 rpm, 4° C., 5 minutes). Each supernatant was removed by suction, and 10 mL of a serum-free medium was added to each tube. The whole in each tube was dispersed by pipetting several times, and cell debris was removed through a filter to obtain each cell suspension.
To confirm the effects of the activating agents on improving the memory, improving learning ability, and/or antidementia, any one of the compounds A, B, C, and D, which were found in Example 16 and can activate the polypeptide consisting of the amino acid sequence of SEQ ID NO: 2, was applied to the neurons to examine an activity of enhancing neurotransmission in the neurons. More particularly, effects of compounds A, B, C, and D on spontaneous excitatory postsynaptic currents (sEPSCs) in primary cultured neurons derived from the rat hippocampus, obtained in Example 13, were examined by a whole-cell patch-clamp method. The sEPSCs is a change of current generated in the neurons, when synaptic vesicles located at the terminus of another cell spontaneously exocytosis a neurotransmitter, and the former cell receives the released neurotransmitter. Therefore, neurotransmission between the neurons can be measured by measuring the sEPSCs (Journal of Neurophysiology, 76, 3159-3168, 1996; The Journal of Neuroscience, 19, 5311-5321, 1999). Further, it is known that the neurotransmission is suppressed by inhibiting the sEPSCs (Journal of Neuroscience Research, 72, 116-124, 2003).
More particularly, the cells (approximately 1×10^5 cells per dish) obtained in Example 13 were plated in a culture dish having a diameter of 35 mm, and cultured for 1 to 5 weeks. As a culture medium, a culture medium for the neurons (SUMILON; Sumitomo Bakelite) was used. Other procedures for cultivation were carried out in accordance with known methods (Methods in Neuroscience vol. 2, Cell culture, P. Michael Conn ed, Academic Press, Inc. 1990). The cell was voltage-clamped at −60 mV by a whole-cell voltage-clamp method, and a whole-cell current generated when PS or each compound was applied was measured (Yasunobu Okada ed., “Shin pacchi kuranpu jikken gijyutsu hou”, Yoshioka shoten, 2001). A solution containing 140 mmol/L NaCl, 5.4 mmol/L KCl, 2 mmol/L CaCl2, 0.8 mmol/L MgCl2, 15 mmol/L glucose, 10 mmol/L HEPES-Na (pH=7.4), 20 μmol/L bicuculline, and 1 μmol/L strychnine was used as an extracellular solution. A solution containing 100 mmol/L potassium gluconate, 10 mmol/L EGTA, 5 mmol/L MgCl2, 2 mmol/L K2ATP, 0.3 mmol/L Na2GTP, and 40 mmol/L HEPES-K (pH=7.25) was used as an intracellular solution.

[2] = biological target: T1, polypeptide consisting of the amino acid sequence of SEQ ID NO: 2 (Homo sapiens, UniProt Q9HCF6, R1695Q); test: Calcium influx with calcium-sensitive fluorescent reagent (Fluo3-AM, FLIPR) in HEK293 transformants; type: cell-based; settings: for EC50: method of Example 6, read-out: EC50 of activation (calcium influx)
T1 construct: expressed in transfected cells
Description: (§2) To detect a channel activity of the polypeptide consisting of the amino acid sequence of SEQ ID NO: 2, animal cells were transfected with the expression vector pcDNA3.1-MLSN2 obtained in Example 1 to express the polypeptide. The expression vector pcDNA3.1-MLSN2 obtained in Example 1 and reagents for transfection (LIPOFECTAMINE or LIPOFECTAMINE2000; Invitrogen) were used to transform human embryonic kidney derived HEK293 cells (ATCC No.: CRL-1573) and induce the expression of the polypeptide consisting of the amino acid sequence of SEQ ID NO: 2. The cells transfected with LIPOFECTAMINE were used in Examples 4 and 5, and the cells transfected with LIPOFECTAMINE2000 were used in Examples 6, 7, and 16.
(§3) The transformants (4×10^4 cells) obtained in Example 3 were incubated at 37° C. for an hour in the presence of a calcium-sensitive fluorescent reagent (Fluo3-AM; DOJINDO), and the reagent was incorporated into the cells. The cells were washed with a physiological saline to remove the reagent not incorporated. A physiological saline supplemented with PS (final concentration=10 μmol/L) was added to the treated cells, and a time course of fluorescence emitted from the cells was measured using an automated fluorescence detector (FLIPR; Molecular Device). As controls, the same procedures were repeated, except that HEK293 cells transfected with pcDNA3.1(+) (i.e., control cells not expressing the polypeptide of SEQ ID NO: 2) were used, or except that a physiological saline without PS was used.
A screening of compounds (activating agents) capable of activating the polypeptide consisting of the amino acid sequence of SEQ ID NO: 2 was carried out. As an index of activation, a calcium influx into cells was detected by using a calcium-sensitive fluorescent reagent, more particularly, in accordance to the method described in Example 6.

[3] = test system: primary cultured neurons derived from rat cerebral cortex; test: Calcium influx in primary cultured neurons derived from rat cerebral cortex; type: cell-based
Description: as §1
This example was carried out in accordance with known methods (Yoshihisa Kudo ed., Jikken Igaku, Supplement “Saibo-nai karushiumu jikken purotokoru”, 1996, Youdo-sha), except for the following procedures.
A time course of fluorescence emitted from cells was measured in accordance with the method described in Example 6, except that the primary cultured neurons (4×10^4 cells) derived from the rat brain (cerebral cortex), obtained in Example 13, were cultured for a week and used, and that the final concentration of PS was 10 μmol/L or 50 μmol/L. As a control, a physiological saline without PS was used.
Any one of compounds A, B, C, and D, and PS was applied to primary cultured neurons derived from the rat cerebral cortex obtained in Example 13, and a calcium influx into the neurons was measured. More particularly, the measurement was carried out in accordance with the method described in Example 14, except that the number of cells was 1×10^5 cells.

[4] = test system: HEK cells not expressing the polypeptide of SEQ ID NO: 2; test: Calcium influx (Fluo3-AM, FLIPR) in control HEK293 cells; type: cell-based, human; settings: for increase in fluorescent intensity: negative control cells
Protocol: as §3
Various compounds were examined, and, as a compound showing an increase in fluorescent intensity, N-[3-(2,6-dichlorophenyl)-5-methylisoxazole-4-yl]-N′-ethyl-N-methyl-N′-phenylurea (code no. SPB 00071; MAYBRIDGE), 3-(2,6-difluorophenyl)-4-(piperidine-1-ylmethyl)-1,3-thiazole-2(3H)-thion (code no. MS 1368; MERLIN), 3-(2,6-difluorophenyl)-4-(pyrrolidine-1-ylmethyl)-1,3-thiazole-2(3H)-thion (code no. MS 1370; MERLIN), and N-(2-acetyl-3-thienyl)-2-[(2-chloro-6-fluorobenzyl)sulfanil]acetamide (code no. GK 00678; Ryan Scientific) (hereinafter referred to as compounds A, B, C, and D, respectively) were found.

[5] = test system: aged rats; settings: non-patent reference 5; cited from earlier work
[6] = test system: control cell not expressing the polypeptide of SEQ ID NO: 2; test: Whole-cell voltage-clamp in control cell transfected with no expression vector; type: cell-based, human; settings: same conditions as the transfected cell
Protocol: Each cell obtained in Example 3 was voltage-clamped by a whole-cell voltage-clamp method, and a whole-cell current generated when PS was applied was measured. A solution containing 149 mmol/L NaCl, 5 mmol/L KCl, 2 mmol/L CaCl2, 0.8 mmol/L MgCl2, and 10 mmol/L HEPES-Na (pH=7.4) was used as an extracellular solution, and a solution containing 147 mmol/L CsCl, 4.5 mmol/L EGTA, and 9 mmol/L HEPES-Cs(pH=7.2) was used as an intracellular solution.
(§4) When PS (100 μmol/L) was extracellularly applied to the cell transfected with plasmid pcDNA3.1-MLSN2 at a holding potential of −40 mV, an inward current (−5.8±0.9, n=10) was measured. After washing the cell, PS was applid thereto at a holding potential of +40 mV, a large outward current (108.9±19.3, n=10) was measured. A current-voltage relationship was measured using a voltage ramp during the response, an outward rectifier was observed.

[7] = test system: hippocampal slices; settings: non-patent references 3, 6 and 7; cited from earlier work
[8] = biological target: T1, polypeptide consisting of the amino acid sequence of SEQ ID NO: 2; test: Whole-cell voltage-clamp detection of channel activity in transfected HEK293 cells; type: cell-based; settings: n=10
Description: as §2
Each cell obtained in Example 3 was voltage-clamped by a whole-cell voltage-clamp method, and a whole-cell current generated when PS was applied was measured. […]
as §4

[9] = final concentration 10 μmol/L, 1×10^5 cells

T1 sequence (Q9HCF6 154-1707 isoform Q9HCF6-2 R1670Q): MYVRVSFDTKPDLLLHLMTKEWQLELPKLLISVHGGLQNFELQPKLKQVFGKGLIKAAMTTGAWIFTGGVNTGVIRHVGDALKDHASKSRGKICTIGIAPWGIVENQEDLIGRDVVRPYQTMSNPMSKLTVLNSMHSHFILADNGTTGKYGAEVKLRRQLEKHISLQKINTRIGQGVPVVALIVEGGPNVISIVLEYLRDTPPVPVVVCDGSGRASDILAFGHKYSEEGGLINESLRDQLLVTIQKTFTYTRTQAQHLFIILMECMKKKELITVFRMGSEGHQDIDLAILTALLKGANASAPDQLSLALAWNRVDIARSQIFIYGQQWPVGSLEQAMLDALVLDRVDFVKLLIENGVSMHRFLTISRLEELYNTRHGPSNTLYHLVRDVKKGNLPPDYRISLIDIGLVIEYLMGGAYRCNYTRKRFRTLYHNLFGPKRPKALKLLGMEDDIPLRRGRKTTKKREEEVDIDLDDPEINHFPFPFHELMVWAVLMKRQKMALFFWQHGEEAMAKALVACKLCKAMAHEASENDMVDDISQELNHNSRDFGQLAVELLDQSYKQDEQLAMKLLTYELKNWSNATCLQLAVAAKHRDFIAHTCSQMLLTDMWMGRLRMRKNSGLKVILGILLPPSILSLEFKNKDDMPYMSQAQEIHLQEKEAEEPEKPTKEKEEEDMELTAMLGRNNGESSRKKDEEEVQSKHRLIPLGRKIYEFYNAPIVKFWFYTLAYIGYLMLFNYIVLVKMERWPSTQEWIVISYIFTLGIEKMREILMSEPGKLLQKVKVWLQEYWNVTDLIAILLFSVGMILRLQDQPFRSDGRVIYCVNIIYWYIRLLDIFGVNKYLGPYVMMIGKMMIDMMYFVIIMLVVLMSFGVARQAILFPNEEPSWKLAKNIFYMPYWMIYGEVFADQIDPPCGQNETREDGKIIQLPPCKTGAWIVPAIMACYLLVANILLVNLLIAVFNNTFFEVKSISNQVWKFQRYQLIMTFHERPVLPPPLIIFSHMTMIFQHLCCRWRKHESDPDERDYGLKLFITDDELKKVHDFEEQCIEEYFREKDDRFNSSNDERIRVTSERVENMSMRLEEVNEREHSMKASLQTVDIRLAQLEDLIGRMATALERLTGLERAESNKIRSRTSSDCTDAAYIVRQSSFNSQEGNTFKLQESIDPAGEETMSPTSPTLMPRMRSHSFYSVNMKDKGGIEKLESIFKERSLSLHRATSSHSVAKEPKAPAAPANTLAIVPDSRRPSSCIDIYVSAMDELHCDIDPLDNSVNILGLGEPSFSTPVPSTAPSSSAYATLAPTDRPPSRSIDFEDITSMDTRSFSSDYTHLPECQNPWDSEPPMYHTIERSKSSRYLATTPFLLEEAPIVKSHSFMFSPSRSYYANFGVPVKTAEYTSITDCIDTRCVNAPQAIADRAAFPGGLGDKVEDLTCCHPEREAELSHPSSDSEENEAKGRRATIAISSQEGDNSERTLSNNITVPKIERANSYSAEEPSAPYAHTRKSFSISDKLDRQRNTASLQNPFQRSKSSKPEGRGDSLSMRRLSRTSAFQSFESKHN

Row | EC50 [2] [µM] | Molecule | enhancement of sEPSCs ([1]; 10 μmol/L) | increase in fluorescent intensity (calcium influx) [3, 9] | increase in fluorescent intensity [4] | enhancement of sEPSCs ([1]; 1 μmol/L) | increase in fluorescent intensity (calcium influx) ([2]; final concentration 10 μmol/L, immediately after addition) | memory and learning ability [5] | whole-cell currents on PS application [6] | neurotransmission (acetylcholine release, hippocampal spike frequency, LTP) [7] | increase in fluorescent intensity (calcium influx) ([3]; 10 μmol/L, 4×10^4 cells cultured for a week) | increase in fluorescent intensity (calcium influx) ([3]; 50 μmol/L, 4×10^4 cells cultured for a week) | fluorescent intensity (calcium influx) ([4]; PS 10 μmol/L, HEK293 cells transfected with pcDNA3.1(+)) | inward current ([8]; PS 100 μmol/L applied extracellularly, holding potential −40 mV) | outward current ([8]; PS applied after washing, holding potential +40 mV)
1 | 9.8 | CCN(C(=O)N(C)c1c(-c2c(Cl)cccc2Cl)noc1C)c1ccccc1 [compound A, N-[3-(2,6-dichlorophenyl)-5-methylisoxazole-4-yl]-N′-ethyl-N-methyl-N′-phenylurea] | the enhancement of sEPSCs was detected | an increase in fluorescent intensity was detected | such an increase in fluorescent intensity was not detected | – | – | – | – | – | – | – | – | – | –
2 | 6.8 | Fc1cccc(F)c1-n1c(CN2CCCCC2)csc1=S [compound B, 3-(2,6-difluorophenyl)-4-(piperidine-1-ylmethyl)-1,3-thiazole-2(3H)-thion] | the enhancement of sEPSCs was detected | an increase in fluorescent intensity was detected | such an increase in fluorescent intensity was not detected | – | – | – | – | – | – | – | – | – | –
3 | 1.9 | Fc1cccc(F)c1-n1c(CN2CCCC2)csc1=S [compound C, 3-(2,6-difluorophenyl)-4-(pyrrolidine-1-ylmethyl)-1,3-thiazole-2(3H)-thion] | the enhancement of sEPSCs was detected | an increase in fluorescent intensity was detected | such an increase in fluorescent intensity was not detected | – | – | – | – | – | – | – | – | – | –
4 | 3.5 | CC(=O)c1sccc1NC(=O)CSCc1c(F)cccc1Cl [compound D, N-(2-acetyl-3-thienyl)-2-[(2-chloro-6-fluorobenzyl)sulfanil]acetamide] | – | an increase in fluorescent intensity was detected | such an increase in fluorescent intensity was not detected | the enhancement of sEPSCs was detected | – | – | – | – | – | – | – | – | –
5 | – | Pregnenolone sulfate [PS, reference compound] | the enhancement of sEPSCs was similarly detected | an increase in fluorescent intensity was detected | – | – | approximately 10,000 counts | the memory and learning ability were improved | such currents were not observed | enhancement of neurotransmission | an increase in fluorescent intensity was detected | an increase in fluorescent intensity was detected | approximately 0 count | −5.8±0.9 | 108.9±19.3
